Assay [1] has as its system 4T1 murine breast cancer cells. In words: Example S: in vitro anticancer screen, 4T1 cells, Wst1. Format: cell-based, mouse. The settings on record: Mus musculus, 4T1, 18 h, 18 hr, Wst1; for viability at 1 µM: read-out: 4T1 1 μM, percent of cancer cell survival relative to vehicle treated cells; for viability at 5 µM: read-out: 4T1 5 μM, percent of cancer cell survival relative to vehicle treated cells. The procedure: Anticancer activity against 4T1 murine breast cancer cells cancer cells was assessed in vitro by seeding 1×10^4 cells/well in flat bottom culture plates, then treating with selected 1 μM or 5 μM concentrations of compounds for 18 hr after plating. Then 10 μL of Wst1 dye reagent, a tetrazolium dye indicator for […], was added/well and incubated approximately 2 hr before being assayed on the Biotek EL800 Universal microplate reader (450 nm, reference 630 nm).
Numerical values in the Table 37 represent percent of cancer cell survival relative to vehicle treated cells at the indicated concentrations, with values under 100 indicating anticancer cytotoxic activity at the drugs concentrations tested.

The next assay has as its system THP-1 cells. In words: Example D: LPS-triggered THP-1 cell death assay, acute/5-hour and chronic/48-hour. The settings on record: 10 ng/ml LPS, 0.1 μM test compound, 48 hours. The assay is classed as cell-based, Human. How it is done:
Compounds of the invention were tested at 0.1 μM versus AC in the LPS-triggered THP-1 cell death assay. Both acute/5-hour and chronic/48-hour phases of cell death were assessed. Compounds were screened in batches with DMSO as the negative control and AC as the high activity control.

For assay [2], the system named is PC-3 prostate cancer cells. In words: Example T: sensitisation of PC-3 cells to doxorubicin, oxaliplatin, paclitaxel or vincristine, Wst1. The assay is classed as cell-based, human. Conditions: PC-3 cells, 72 hours.

In the case of `COCCNc1ccnc2ccccc12` [BR, N-(2-Methoxyethyl)quinolin-4-amine], in assay [1], the viability at 1 µM was found to be 106% and the viability at 5 µM stood at 122%.
Taken in the same sequence, the figures for `c1ccc2c(NCCN3CCOCC3)ccnc2c1` [BS, N-[2-(Morpholin-4-yl)ethyl]quinolin-4-amine] were 105% and 117%.
As to `O=C(NCCCNc1ccnc2ccccc12)c1ccccc1` [BT, N-[3-(Quinolin-4-ylamino)propyl]benzamide], the “Viable cell percent change, Chronic/48-hour, Mean” value (“Viable cell percent change” for short) with THP-1 cells is 66.98%. In assay [1], the viability at 1 µM is 119% and the viability at 5 µM came out at 121%.
For the molecule `CCN(CC)CCNC(=O)c1ccc(Nc2ccnc3ccccc23)cc1` [BW, N-(2-Diethylaminoethyl)-4-(quinolin-4-ylamino)benzamide], the “Viable cell percent change” value with THP-1 cells came to 36.08%. In assay [1], the viability at 1 µM was 123% and the viability at 5 µM is 236%.
Taken in the same sequence, the figures for `CN(C)c1ccc(CNc2ccnc3ccccc23)cc1` [BX, N-(4-Dimethylaminobenzyl)quinolin-4-amine] were 25.10%, 116% and 116%.
For `c1ccc2c(NCc3ccncc3)ccnc2c1` [BZ, N-(Pyridin-4-ylmethyl)quinolin-4-amine], in that order: 30.72%, 122% and 260%.
Consider `CCCCCCOCCCCCCCC(=O)NCc1ccncc1` [CA, N-(Pyridin-4-ylmethyl)-8-(hexyloxy)octanamide], for which, in assay [1], the viability at 1 µM amounted to 108% and the viability at 5 µM amounted to 109%.
Regarding `CCCCCCOCCCCCCCC(=O)Nc1ccc2ncccc2c1` [CB, N-(Quinolin-6-yl)-8-(hexyloxy)octanamide], the “Viable cell percent change” value in the assay on THP-1 cells was 10.62%. Besides, in assay [1], the viability at 1 µM is 105% and the viability at 5 µM came to 102%.
For `CCCCCCOCCCCCCCCn1cnc2ccccc21` [CC, 1-[8-(Hexyloxy)octyl]-1H-benzimidazole], in assay [1], the viability at 1 µM was found to be 110% and the viability at 5 µM was 99.5%.
For the molecule `CCCCCCCCCCOc1cccc(CNc2ncnc3ccccc23)c1` [CG, N-[3-(Decyloxy)benzyl]quinazolin-4-amine], the “Viable cell percent change” value in the assay with THP-1 cells was 54.66%.
Turning to `CCCCCCOCCCCCCCCNc1ccnc2c(C(F)(F)F)cccc12` [CN, N-[8-(Hexyloxy)octyl]-8-(trifluoromethyl)quinolin-4-amine], in the assay on THP-1 cells, the “Viable cell percent change” value was 3.70%. Besides, in assay [1], the viability at 1 µM turned out to be 32.5% and the viability at 5 µM amounted to 18.8%.
For `c1ccc(-c2ccc(Nc3ccnc4ccccc34)cc2)cc1` [DC, N-(Biphenyl-4-yl)quinolin-4-amine], in that order: 87.66%, 110% and 96.7%.
Taken in the same sequence, the figures for `CCCCCC(=O)Nc1ccc(Nc2ccnc3ccccc23)cc1` [DG, N-[4-(Quinolin-4-ylamino)phenyl]hexanamide] were 37.90%, 105% and 94.7%.
As to `CCCCCC(=O)Nc1cccc(Nc2ccnc3ccccc23)c1` [DH, N-[3-(Quinolin-4-ylamino)phenyl]hexanamide], the “Viable cell percent change” value in the assay with THP-1 cells is recorded as 50.89%. For the same molecule, in assay [1], the viability at 1 µM stood at 96.6% and the viability at 5 µM worked out at 112%.
For `COc1ccc(Nc2ccnc3ccccc23)cc1` [DI, N-(4-Methoxyphenyl)quinolin-4-amine], in that order: 82.24%, 108% and 126%.
Taken in the same sequence, the figures for `CCCCOc1ccc(Nc2ccnc3ccccc23)cc1` [DK, N-(4-Butoxyphenyl)quinolin-4-amine] were 73.60%, 102% and 87.6%.
For `c1ccc(CNc2ccnc3ccccc23)cc1` [DQ, N-Benzylquinolin-4-amine], in that order: 32.31%, 99.5% and 122%.
`CCCCCCCCCCOc1ccc(CNc2ccnc3ccccc23)cc1` [DT, N-[4-(Decyloxy)benzyl]quinolin-4-amine]: the “Viable cell percent change” value with THP-1 cells is on record as 16.12%.
Regarding `c1ccc(CCOc2cccc(CNc3ccnc4ccccc34)c2)cc1` [DV, N-(3-Phenethoxybenzyl)quinolin-4-amine], the “Viable cell percent change” value with THP-1 cells amounted to 24.69%. Moreover, the viability at 0.4 µM in assay [2] (Homo sapiens, compound 0.4 μM alone, Wst1, vehicle = 100, read-out: No Chemo: percent cell survival) was 31.6%. In addition, in assay [2] (compound 0.4 μM + doxorubicin 3.5 μM, chemotherapy agent alone normalized to 100%), the “Doxorubicin 3.5 μM: percent cell survival” value was determined as 76.7%. The “Oxaliplatin 100 μM: percent cell survival” value in assay [2] (compound 0.4 μM + oxaliplatin 100 μM, chemotherapy agent alone normalized to 100%) is given as 61.9%. In addition, in assay [2] (compound 0.4 μM + paclitaxel 50 μM, chemotherapy agent alone normalized to 100%), the “Paclitaxel 50 μM: percent cell survival” value came to 23.3%. Further, in assay [2] (compound 0.4 μM + vincristine 100 nM, chemotherapy agent alone normalized to 100%), the “Vincristine 100 nM: percent cell survival” value turned out to be 32.2%.
With `O=C(NCCCCNc1ccnc2ccccc12)c1ccccc1` [DW, N-[4-(Quinolin-4-ylamino)butyl]benzamide], the “Viable cell percent change” value in the assay with THP-1 cells came to 73.97%. Besides, in assay [1], the viability at 1 µM amounted to 102% and the viability at 5 µM is 194%.
Taken in the same sequence, the figures for `O=C(NCCCCCCNc1ccnc2ccccc12)c1ccccc1` [DX, N-[6-(Quinolin-4-ylamino)hexyl]benzamide] were 59.95%, 112% and 105%.
Turning to `CCCCCCOc1ccccc1C(=O)NCCCCNc1ccnc2ccccc12` [ED, 2-(Hexyloxy)-N-[4-(quinolin-4-ylamino)butyl]benzamide], the “Viable cell percent change” value with THP-1 cells is given as 81.40%.
In the case of `c1ccc(CNc2ccnc3ccccc23)nc1` [EH, N-(Pyridin-2-ylmethyl)quinolin-4-amine], the “Viable cell percent change” value in the assay on THP-1 cells came to 32.85%. Besides, in assay [1], the viability at 1 µM amounted to 116% and the viability at 5 µM came out at 128%.
On to `CCCCCCOCCCCCCCCNc1ccc2ncccc2c1` [EK, N-[8-(Hexyloxy)octyl]quinolin-6-amine], for which, in the assay on THP-1 cells, the “Viable cell percent change” value amounted to 15.50%. For the same molecule, in assay [1], the viability at 1 µM is 116% and the viability at 5 µM amounted to 114%.
For the molecule `CCCCCCOCCCCCCCCNc1cccc2cccnc12` [EM, N-[8-(Hexyloxy)octyl]quinolin-8-amine], in assay [1], the viability at 1 µM was 106% and the viability at 5 µM came to 93%.
On to `CCCCCCOCCCCCCCCNc1cc(C(F)(F)F)nc2ccccc12` [EN, N-[8-(Hexyloxy)octyl]-2-(trifluoromethyl)quinolin-4-amine], for which the “Viable cell percent change” value in the assay on THP-1 cells stood at 6.64%. In addition, in assay [1], the viability at 1 µM came to 93.3% and the viability at 5 µM was found to be 89.8%.
As for `CCCCC(OC(C)=O)c1nc2c(N)nc3ccccc3c2n1CC(C)C` (stereo not shown) [FC, 1-(4-Amino-1-isobutyl-1H-imidazo[4,5-c]quinolin-2-yl)pentyl acetate], in assay [1], the viability at 1 µM amounted to 115% and the viability at 5 µM was found to be 123%.
In the case of `CCCCCCCCCCCCCCCCn1cnc2cnccc21` [FM, 1-Hexadecyl-1H-imidazo[4,5-c]pyridine], the “Viable cell percent change” value in the assay with THP-1 cells was found to be 9.74%.
Consider `COCCCCCCCCNc1ccncc1` [FN, N-(8-Methoxyoctyl)pyridin-4-amine], for which, in the assay on THP-1 cells, the “Viable cell percent change” value was determined as 3.54%. For the same molecule, in assay [1], the viability at 1 µM is 92.9% and the viability at 5 µM turned out to be 79.4%.
For `CCCCCCOCCCCCCCCNc1cccnc1` [FO, N-[8-(Hexyloxy)octyl]pyridin-3-amine], the “Viable cell percent change” value with THP-1 cells is on record as 20.18%. For the same molecule, in assay [1], the viability at 1 µM is 106% and the viability at 5 µM is 146%.
As to `CCCCCCOCCCCCCCCNc1ccccn1` [FP, N-[8-(Hexyloxy)octyl]pyridin-2-amine], the “Viable cell percent change” value in the assay with THP-1 cells is 30.44%. In addition, in assay [1], the viability at 1 µM is 116% and the viability at 5 µM is 116%.
Turning to `CCCCCCOCCCCCCCCNc1ncccn1` [FQ], the “Viable cell percent change” value in the assay with THP-1 cells is reported as 25.62%. In addition, in assay [1], the viability at 1 µM was 110% and the viability at 5 µM is 98%.
For `CCCCCCOCCCCCCCCNc1nccc2ccccc12` [FS, N-[8-(Hexyloxy)octyl]isoquinolin-1-amine], in assay [1], the viability at 1 µM was determined as 122% and the viability at 5 µM was 107%.
Taken in the same sequence, the figures for `CCCCCCOCCCCCCCCNc1cnc2ccccc2n1` [FU, N-[8-(Hexyloxy)octyl]quinoxalin-2-amine] were 118% and 106%.
For `CCCCCCOCCCCCCCCNc1cnccn1` [FV, N-[8-(Hexyloxy)octyl]pyrazin-2-amine], the “Viable cell percent change” value with THP-1 cells was determined as 17.51%. Also, in assay [1], the viability at 1 µM was 104% and the viability at 5 µM amounted to 101%.
As for `CCCCCCOCCCCCCCCn1cnc2cccnc21` [FX, 3-[8-(Hexyloxy)octyl]-3H-imidazo[4,5-b]pyridine], in assay [1], the viability at 1 µM is 112% and the viability at 5 µM turned out to be 96.6%.

For the origin of these results see patent US20250034139A1, “AMINE COMPOUNDS HAVING ANTI-INFLAMMATORY, ANTIFUNGAL, ANTIPARASITIC, AND ANTICANCER ACTIVITY” (PHARMA CINQ, LLC, priority 2013, published 2025).
